Test results reported in PubChem BioAssay (NCI).
Values joined by “and” are separate entries in the source; they are usually repeats but may differ in a detail not shown here. Identical values can stand only once.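 Interpolation was linear, between the two tested concentrations surrounding the appropriate level; five concentrations were tested over 48 hours in 96-well plates. GI50 is the concentration that inhibits growth by half. TGI marks complete inhibition of growth.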 Where a SMILES comes first, the peptide text is derived from it. [ ]: non-standard residue; d: D form. The star is where a group is joined. Bn2Val = CC(C)[C@@H](C(=O)*)N(Cc1ccccc1)Cc1ccccc1; NH(4-Cl-benzyl) = Clc1ccc(CN*)cc1; NMeV = CN[C@H](C(=O)O)C(C)C; dNMeA = CN[C@H](C)C(=O)O

Experiments:
Assay in all cases: NCI-60 cell line screen, 48 h
SR leukemia = test system: SR leukemia
SK-MEL-5 melanoma = test system: SK-MEL-5 melanoma
MOLT-4 leukemia = test system: MOLT-4 leukemia
KM20L2 colon = test system: KM20L2 colon
HT29 colon = test system: HT29 colon
SK-OV-3 ovarian = test system: SK-OV-3 ovarian
SW-620 colon = test system: SW-620 colon
SN12C renal = test system: SN12C renal
CAKI-1 renal = test system: CAKI-1 renal
OVCAR-5 ovarian = test system: OVCAR-5 ovarian
SNB-78 CNS = test system: SNB-78 CNS

SMILES	TGI (SR leukemia)	TGI (SK-MEL-5 melanoma)	TGI (MOLT-4 leukemia)	TGI (KM20L2 colon)	TGI (HT29 colon)	TGI (SK-OV-3 ovarian)	TGI (SW-620 colon)	TGI (SN12C renal)	TGI (CAKI-1 renal)	TGI (OVCAR-5 ovarian)	TGI (SNB-78 CNS)	GI50 (SK-MEL-5 melanoma)	GI50 (MOLT-4 leukemia)	GI50 (HT29 colon)	GI50 (SK-OV-3 ovarian)	GI50 (SW-620 colon)	GI50 (SN12C renal)	GI50 (CAKI-1 renal)	GI50 (OVCAR-5 ovarian)
CN=C(/N=c1\ssc(=NC)n1C)N(C)C	> 100 µM	> 100 µM	> 100 µM	> 100 µM	> 100 µM	> 100 µM	> 100 µM	> 100 µM	> 100 µM	> 100 µM									
O=C1c2c(O)cccc2-c2nn(CCNCCO)c3ccc(NCCNCCO)c1c23	3 µM	1.13 µM	0.086 µM	9.29 µM	13.1 µM	1.14 µM	7.09 µM	0.454 µM	1.81 µM	2.85 µM	5.99 µM								
COc1ccc(C(=O)CC(c2ccccc2)[C@H]2C(c3ccc(OC)cc3)=Nc3c(nc(SC)n(C)c3=O)NC2c2ccccc2)cc1 (some centres not stated)	> 100 µM	> 100 µM	> 100 µM		> 100 µM	> 100 µM	> 100 µM	> 100 µM	> 100 µM	> 100 µM									
COc1cccc(N=N/C(=N\NC(=O)c2ccc(C)cc2)c2ccc(N(CCC#N)CCC#N)cc2C)c1	> 100 µM	> 100 µM	> 100 µM		> 100 µM	> 100 µM	> 100 µM	> 100 µM	> 100 µM	> 100 µM									
CCN(CC)C(=S)SS(=O)(=O)c1cccc(N)c1	> 100 µM	> 100 µM	> 100 µM		> 100 µM	> 100 µM	> 100 µM	> 100 µM	> 100 µM	> 100 µM									
CC1=C2C(=CO[C@H](C)[C@H]2C)C(=O)C(C(=O)O)=C1O	66.7 µM	35.7 µM and 45.4 µM	40 µM and > 93.6 µM	71.7 µM	63.9 µM and 88.9 µM	88 µM and 150 µM	> 74.5 µM and 77.4 µM	54.8 µM and 26.2 µM	54.2 µM and 77.8 µM	73 µM and 128 µM	82.8 µM	20.4 µM	34.1 µM	18.3 µM	28 µM	26.9 µM	9.07 µM	16.6 µM	29.5 µM
CC(C)=CCNc1nc(Cl)nc2nc[nH]c12	> 100 µM	> 100 µM	> 100 µM		> 100 µM	46 µM	> 100 µM	> 100 µM	> 100 µM	> 100 µM									
CC(C)(C)OC(=O)NCC(CNC(=O)OC(C)(C)C)c1nc(C(N)=O)cs1	> 100 µM	> 100 µM	> 100 µM		> 100 µM	> 100 µM	> 100 µM	> 100 µM	> 100 µM	> 100 µM									
COc1cccc(C=O)c1[O-].[O]=[U](=[O])([OH2+])[OH2+]	87.5 µM	> 100 µM	73.2 µM	> 100 µM	> 100 µM	63.6 µM	> 100 µM	> 100 µM	> 100 µM	> 100 µM	> 100 µM							> 100 µM	
NN=C(CC(O)(C(F)(F)Cl)C(F)(F)Cl)CC(O)(C(F)(F)Cl)C(F)(F)Cl	> 10 µM	> 10 µM	> 10 µM		> 10 µM	> 10 µM	> 10 µM	> 10 µM	> 10 µM	> 10 µM									
COc1cc(C2C3=C(COC3=O)Oc3cc4c(cc32)OCO4)cc(OC)c1O (configuration not stated)	> 100 µM	< 0.0187 µM	26 µM		0.984 µM	1.48 µM	> 100 µM	23.2 µM	21.6 µM	39.4 µM									
COc1ccc(OC)c(SC(CC(=O)c2ccccc2)c2ccccc2)c1 (configuration not stated)	> 100 µM	28.7 µM	> 100 µM		35.8 µM	40.3 µM	12.2 µM	40.6 µM	28.5 µM	33.5 µM									
O=C(CCN1CCN2c3ccccc3CCC2C1)c1ccc(F)cc1 (configuration not stated)	> 100 µM	49.9 µM	> 100 µM		41.7 µM	> 100 µM	> 100 µM	> 100 µM	44.4 µM	62.2 µM									
O=c1[nH]n(Cc2ccccc2)c2ccc([N+](=O)[O-])cc12	> 100 µM	> 100 µM	> 100 µM		> 100 µM	> 100 µM	> 100 µM	> 100 µM	> 100 µM	> 100 µM									
CC(C)/C(Cl)=N\OC(NC(=O)P(=O)(c1ccccc1)c1ccccc1)(C(F)(F)F)C(F)(F)F	59 µM	26.7 µM	39.6 µM		59.1 µM	> 100 µM	53.9 µM	26.6 µM	46.3 µM	48.3 µM									
C#CCn1c(=O)c(C)cn(/C(=C\C(=O)OCC)C(=O)OCC)c1=O	> 27.6 µM	> 100 µM	> 26.5 µM		4.03 µM	> 56.4 µM	> 100 µM	33.9 µM	2.86 µM	23.9 µM						2.14 µM			

SMILES	TGI (SR leukemia)	TGI (SK-MEL-5 melanoma)	TGI (MOLT-4 leukemia)	TGI (KM20L2 colon)	TGI (HT29 colon)	TGI (SK-OV-3 ovarian)	TGI (SW-620 colon)	TGI (SN12C renal)	TGI (CAKI-1 renal)	TGI (OVCAR-5 ovarian)	TGI (SNB-78 CNS)	GI50 (SK-MEL-5 melanoma)	GI50 (MOLT-4 leukemia)	GI50 (HT29 colon)	GI50 (SK-OV-3 ovarian)	GI50 (SW-620 colon)	GI50 (SN12C renal)	GI50 (CAKI-1 renal)	GI50 (OVCAR-5 ovarian)
O=C(O)c1ccccc1N=Cc1ccc(N(CCCl)CCCl)cc1		> 100 µM	> 100 µM	> 100 µM	> 100 µM	> 100 µM	> 100 µM	> 100 µM	34.5 µM	> 100 µM	> 100 µM								
CC(C)C(C/C=C1\CC(CO)(COC(=O)C2CCCCC2)OC1=O)C(C)C (configuration not stated)	> 100 µM	> 100 µM	39.8 µM		79.5 µM	> 100 µM	40.5 µM	31.2 µM	43.8 µM	41.8 µM									
O=C(N/N=C/C=C/c1ccccc1)c1ccccc1Nc1ccccc1C(=O)N/N=C/C=C/c1ccccc1	> 100 µM	> 100 µM	> 100 µM		> 100 µM	> 100 µM	> 100 µM	> 100 µM	> 100 µM	> 100 µM									
CC(Oc1ccccc1Cl)C(=O)NN1C(=O)CSC1c1ccccc1 (configuration not stated)	> 100 µM	> 100 µM	> 100 µM		> 100 µM	> 100 µM	> 100 µM	> 100 µM	> 100 µM	> 100 µM									
Cc1ccccc1-c1nc2c(C(=O)NCCN(C)C)cccc2[nH]1		53.7 µM	75.6 µM	> 100 µM	> 100 µM	> 100 µM	> 100 µM	> 100 µM	> 100 µM	> 100 µM	> 100 µM								
Cc1cc(=O)[nH]c(NN2C(Cl)C(=O)C2c2ccc([N+](=O)[O-])cc2)n1 (configuration not stated)	34.5 µM	27.3 µM	43.2 µM	56.7 µM	43.8 µM		79.7 µM	24.5 µM		52.8 µM	25 µM								
COc1cccc(N[C@@H]2c3cc4c(cc3C(c3cc(OC)c(O)c(OC)c3)[C@H]3C(=O)OCC32)OCO4)c1 (some centres not stated)		3.04 µM	0.164 µM	> 29.4 µM	10.5 µM	17.9 µM	> 43.2 µM		2.12 µM	> 74.2 µM	> 100 µM								
CN(C)CCCNc1ccc2nnn3c4ccc(O)cc4c(=O)c1c23	3.61 µM	19.7 µM	9.3 µM	17.1 µM	15.6 µM	23.4 µM	17.2 µM	18.8 µM	13.1 µM	23.2 µM	20.7 µM								
NCc1cccc(O)c1O	> 100 µM	> 100 µM	> 100 µM	> 100 µM	> 100 µM	> 100 µM	> 100 µM	> 100 µM	> 100 µM	> 100 µM	> 100 µM								
CC(C)[C@H](NC(=O)[C@H](C(C)C)N(Cc1ccccc1)Cc1ccccc1)C(=O)N(C)[C@H](C(=O)N1CCC[C@H]1C(=O)N(C)[C@H](C)C(=O)NCc1ccc(Cl)cc1)C(C)C (Bn2Val-V[NMeV]P[dNMeA]-{NH(4-Cl-benzyl)})	> 100 µM	13.4 µM	> 100 µM		3.54 µM	> 100 µM	> 100 µM	6.35 µM	> 100 µM	> 100 µM									
Nc1ccc(S(=O)(=O)Nc2nc3ccccc3nc2N2CCCCCC2)cc1	> 100 µM	30.1 µM	55.3 µM		> 100 µM	> 100 µM	54.1 µM	44.9 µM	82.7 µM	> 100 µM									
O=C(c1cccs1)N1CCN(C(=O)c2cccs2)C1=S	> 100 µM	18.2 µM	8.18 µM		21 µM	28.9 µM	24.6 µM	10.1 µM	15.3 µM	30.3 µM									
CC(C)(C)n1c(=O)[nH]c(=O)n1C(C)(C)C	> 100 µM	> 100 µM	> 100 µM		> 100 µM	> 100 µM	> 100 µM	> 100 µM	> 100 µM	> 100 µM									
O=c1c(-c2ccccc2)c(SCCO)n(-c2ccccc2)c(=S)n1-c1ccccc1	> 100 µM	> 100 µM	> 100 µM		> 100 µM	> 100 µM	> 100 µM	> 100 µM	> 100 µM	> 100 µM									
c1ccc(/C(=N/Nc2ccncn2)c2ccccn2)cc1	> 100 µM	> 100 µM	49.2 µM		> 100 µM	75.7 µM	> 100 µM	> 100 µM	> 100 µM	> 100 µM									
